From US5078135A, “Apparatus for in vivo analysis of biological compounds in blood or tissue by microdialysis and mass spectrometry” (Board of Regents, The University of Texas System, priority 1989, dated 1992)

Experiments:
[1] = intramuscular administration; broken curve 43 in FIG. 4; cited from earlier work
[2] = in vivo pharmacokinetic analysis of free drug by microdialysis / CF-FAB mass spectrometry (jugular vein probe, rat); parameters: species or system Sprague Dawley male rat; settings: 330 gram rat, 15 milligrams sodium penicillin G in 0.3 milliliters saline, injected
Source text: Referring to FIG. 1, the present invention applied to detect drug and metabolite levels in a rat is disclosed. It should be emphasized that the present apparatus and method can be applied to other animals, including humans. Microdialysis probe 11 is inserted inside a 22-gauge needle cannula (not shown) surgically placed in the jugular vein of a 330 gram Sprague Dawley male rat 12. A microliter syringe pump 13 is connected to microdialysis probe 11 by tube 14 and is used to controllably provide perfusate to microdialysis probe 11 through tube 14. Syringe pump 13 can be a Model 2274 pump available from the Harvard Apparatus Co., of Milford, Mass. In the preferred embodiment, the perfusate is 95% water and 5% glycerol provided at a rate of 4.8+/-0.2 microliters per minute.
The dialysate output from microdialysis probe 11 is connected through tube 16 to injection switch valve 17 which can be, for example, a Rheodyne Model 7410 injection switch valve. During collection, injection switch valve 17 is positioned so that dialysate passing through tube 16 passes through 20 microliter collection loop 18. […]
A 330 gram rat was injected with a dose of 15 milligrams of sodium penicillin G dissolved in 0.3 milliliters of physiological saline solution. Negative ions were recorded in the mass spectrometric analysis of the dialysate in order to obtain maximum sensitivity. […]

Q: Which results are given for `CC1(C)S[C@@H]2[C@H](NC(=O)Cc3ccccc3)C(=O)N2[C@H]1C(=O)O` [sodium penicillin G]?
A: time to peak, published data [1]: 26 to 30 min; peak concentration of free drug (non-protein bound) [2]: approximately 24 micrograms per milliliter; time of peak concentration of free drug [2]: about 30 minutes
